Results: patent US20260262643A1, “HERBICIDAL BENZOXAZINES” (FMC CORPORATION, priority 2022, published 2026)

How the values were obtained:
[1] = test system: horseweed; assay: Test A postemergence; assay type: in vivo, Erigeron canadensis
Method in brief: (§1)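 Weeds and crops in loam–sand blend were sprayed preemergence onto soil or postemergence at 2–10 cm (one- to two-leaf stage). Test chemicals were in a non-phytotoxic solvent with surfactant. After 10 days in the greenhouse, injury was rated visually against untreated controls on a 0 (no effect) to 100 (complete control) scale.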

[2] = test system: ryegrass, Italian; assay: Test A postemergence; assay type: in vivo, Lolium multiflorum
Method in brief: as §1

[3] = test system: pigweed, palmer; assay: Test A preemergence; assay type: in vivo, Amaranthus palmeri
Method in brief: as §1

[4] = test system: barnyardgrass; assay: Test A preemergence; assay type: in vivo, Echinochloa crusgalli; conditions: 1000 g ai/ha, 0 to 100 scale (0 no effect, 100 complete control), 10 days
Source text: (§2) Seeds of plant species selected from barnyardgrass (Echinochloa crusgalli), blackgrass (Alopecurus myosuroides), corn (Zea mays), foxtail, giant (giant foxtail, Setaria faberi), goosegrass (Eleusine indica), kochia (Bassia scoparia), oat, wild (wild oat, Avena fatua), pigweed, palmer (palmer amaranth, palmer pigweed, Amaranthus palmeri), Pigweed, Redroot (redroot pigweed, Amaranthus retroflexus), ragweed (common ragweed, Ambrosia artemisiifolia), ryegrass, Italian (italian ryegrass, Lolium multiflorum), soybean (Glycine max), and wheat (Triticum aestivum) were planted into a blend of loam soil and sand and treated preemergence with a directed soil spray using test chemicals formulated in a non-phytotoxic solvent mixture which included a surfactant. At the same time, plants selected from these crops and weed species and also galium (catchweed bedstraw, Galium aparine) and horseweed (Erigeron canadensis) were planted in pots containing the same blend of loam soil and sand and treated with postemergence applications of test chemicals formulated in the same manner. Plants ranged in height from 2 to 10 cm and were in the one- to two-leaf stage for the postemergence treatment. Treated plants and untreated controls were maintained in a greenhouse for 10 days, after which time all treated plants were compared to untreated controls and visually evaluated for injury. Plant response ratings, summarized in Table A, are based on a 0 to 100 scale where 0 is no effect and 100 is complete control. A dash (-) response means no test result.

[5] = test system: blackgrass; assay: Test A preemergence; assay type: in vivo, Alopecurus myosuroides
Method in brief: as §1

[6] = test system: kochia; assay: Test A preemergence; assay type: in vivo, Bassia scoparia
Method in brief: as §1

[7] = test system: ragweed; assay: Test A preemergence; assay type: in vivo, Ambrosia artemisiifolia
Method in brief: as §1

[8] = test system: foxtail, giant; assay: Test A preemergence; assay type: in vivo, Setaria faberi
Method in brief: as §1

[9] = test system: kochia; assay: Test A postemergence; assay type: in vivo, Bassia scoparia
Method in brief: as §1

[10] = test system: foxtail, giant; assay: Test A postemergence; assay type: in vivo, Setaria faberi
Method in brief: as §1

[11] = test system: galium; assay: Test A postemergence; assay type: in vivo, Galium aparine
Method in brief: as §1

[12] = test system: ragweed; assay: Test A postemergence; assay type: in vivo, Ambrosia artemisiifolia
Method in brief: as §1

[13] = test system: barnyardgrass; assay: Test A postemergence; assay type: in vivo, Echinochloa crusgalli; conditions: 1000 g ai/ha, Postemergence; 0 to 100 scale
Source text: as §2

[14] = test system: blackgrass; assay: Test A postemergence; assay type: in vivo, Alopecurus myosuroides
Method in brief: as §1

[15] = test system: pigweed, palmer; assay: Test A postemergence; assay type: in vivo, Amaranthus palmeri
Method in brief: as §1

[16] = test system: ryegrass, Italian; assay: Test A preemergence; assay type: in vivo, Lolium multiflorum
Method in brief: as §1

[17] = test system: goosegrass; assay: Test A preemergence; assay type: in vivo, Eleusine indica
Method in brief: as §1

[18] = test system: wheat; assay: Test A postemergence; assay type: in vivo, Triticum aestivum
Method in brief: as §1

[19] = test system: goosegrass; assay: Test A postemergence; assay type: in vivo, Eleusine indica
Method in brief: as §1

[20] = test system: oat, wild; assay: Test A preemergence; assay type: in vivo, Avena fatua
Method in brief: as §1

[21] = test system: rice; assay: Test B flooded paddy test; assay type: in vivo, Oryza sativa; conditions: 250 g ai/ha, Flood, 13 days, 0 to 100 scale (0 no effect, 100 complete control)
Method in brief: (§3)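 Each species was raised to the 2-leaf stage. At treatment, each pot received floodwater 3 cm deep, with the chemical delivered into the water. Greenhouse holding followed for 13 days, then percent control was estimated visually versus untreated pots.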

[22] = test system: sedge, umbrella; assay: Test B flooded paddy test; assay type: in vivo, Cyperus difformis; conditions: 250 g ai/ha, Flood, 13 days, 0 to 100 scale (0 no effect, 100 complete control)
Method in brief: as §3

[23] = test system: oat, wild; assay: Test A postemergence; assay type: in vivo, Avena fatua
Method in brief: as §1

[24] = test system: barnyardgrass; assay: Test B flooded paddy test; assay type: in vivo, Echinochloa crus-galli; conditions: 250 g ai/ha, Flood, 13 days, 0 to 100 scale (0 no effect, 100 complete control)
Method in brief: as §3

[25] = test system: wheat; assay: Test A preemergence; assay type: in vivo, Triticum aestivum
Method in brief: as §1

[26] = test system: corn; assay: Test A postemergence; assay type: in vivo, Zea mays
Method in brief: as §1

[27] = test system: corn; assay: Test A preemergence; assay type: in vivo, Zea mays
Method in brief: as §1

[28] = test system: soybean; assay: Test A preemergence; assay type: in vivo, Glycine max
Method in brief: as §1

[29] = test system: ducksalad; assay: Test B flooded paddy test; assay type: in vivo, Heteranthera limosa; conditions: 250 g ai/ha, Flood, 13 days, 0 to 100 scale (0 no effect, 100 complete control)
Method in brief: as §3

[30] = test system: soybean; assay: Test A postemergence; assay type: in vivo, Glycine max
Method in brief: as §1

[31] = 1000 g ai/ha, Postemergence, 0 to 100 scale
[32] = 1000 g ai/ha, 0 to 100 scale (0 no effect, 100 complete control), 10 days
[33] = 125 g ai/ha, postemergence, 10 days, visual injury, 0 to 100 scale (0 no effect, 100 complete control)
[34] = 500 g ai/ha, Postemergence, 0 to 100 scale
[35] = 125 g ai/ha, visual injury after 10 days, 0 to 100 scale, 0 is no effect, 100 is complete control
[36] = 500 g ai/ha, 0 to 100 scale (0 no effect, 100 complete control), 10 days

Cc1cccc2c1O[C@@H](C)CN2C(=O)c1cccc(-n2cc(C#N)cn2)c1 [Compound 134]
50: Plant response rating, Ragweed [7, 32] | Plant response rating, Kochia [9, 31] | Plant response rating, Foxtail, Giant [10, 31]
0: Plant response rating, Horseweed [1, 31] | Plant response rating, Ragweed [12, 31] | Plant response rating, Blackgrass [14, 31]
90: Plant response rating, Pigweed, Palmer [3, 32]
70: Plant response rating, Foxtail, Giant [8, 32]
80: Plant response rating, Ryegrass, Italian [16, 32]
10: Plant response rating, Barnyardgrass [13]
20: Plant response rating, Ryegrass, Italian [2, 31] | Plant response rating, Kochia [6, 32] | Plant response rating, Galium [11, 31]
40: Plant response rating, Blackgrass [5, 32]
30: Plant response rating, Barnyardgrass [4] | Plant response rating, Pigweed, Palmer [15, 31]

Cc1cccc2c1O[C@@H](C)CN2C(=O)c1cccc(-n2cc(C(F)(F)F)cn2)c1 [Compound 130]
10: Plant response rating, Barnyardgrass [4] | Plant response rating, Blackgrass [5, 32]
0: Plant response rating, Horseweed [1, 31] | Plant response rating, Ryegrass, Italian [2, 31] | Plant response rating, Pigweed, Palmer [3, 32] | Plant response rating, Kochia [6, 32] | Plant response rating, Ragweed [7, 32] | Plant response rating, Foxtail, Giant [8, 32] | Plant response rating, Kochia [9, 31] | Plant response rating, Foxtail, Giant [10, 31] | Plant response rating, Galium [11, 31] | Plant response rating, Ragweed [12, 31] | Plant response rating, Barnyardgrass [13] | Plant response rating, Blackgrass [14, 31] | Plant response rating, Pigweed, Palmer [15, 31] | Plant response rating, Ryegrass, Italian [16, 32]

CCOC(=O)c1cnn(-c2cccc(C(=O)N3C[C@H](C)Oc4c(C)cccc43)c2)c1 [Compound 133]
80: Plant response rating, Foxtail, Giant [8, 32]
60: Plant response rating, Ryegrass, Italian [2, 31] | Plant response rating, Barnyardgrass [4] | Plant response rating, Galium [11, 31]
40: Plant response rating, Pigweed, Palmer [3, 32] | Plant response rating, Kochia [9, 31] | Plant response rating, Ragweed [12, 31]
70: Plant response rating, Ryegrass, Italian [16, 32]
0: Plant response rating, Horseweed [1, 31] | Plant response rating, Blackgrass [5, 32] | Plant response rating, Kochia [6, 32] | Plant response rating, Blackgrass [14, 31]
30: Plant response rating, Ragweed [7, 32] | Plant response rating, Foxtail, Giant [10, 31] | Plant response rating, Pigweed, Palmer [15, 31]
20: Plant response rating, Barnyardgrass [13]

Cc1cccc2c1O[C@@H](C)CN2C(=O)c1cccc(-n2cc(Cl)cn2)c1 [Compound 132]
0: Plant response rating, Horseweed [1, 31] | Plant response rating, Ryegrass, Italian [2, 31] | Plant response rating, Pigweed, Palmer [3, 32] | Plant response rating, Blackgrass [5, 32] | Plant response rating, Kochia [6, 32] | Plant response rating, Ragweed [7, 32] | Plant response rating, Foxtail, Giant [8, 32] | Plant response rating, Galium [11, 31] | Plant response rating, Ragweed [12, 31] | Plant response rating, Barnyardgrass [13] | Plant response rating, Blackgrass [14, 31] | Plant response rating, Pigweed, Palmer [15, 31] | Plant response rating, Ryegrass, Italian [16, 32]
20: Plant response rating, Kochia [9, 31]
10: Plant response rating, Barnyardgrass [4] | Plant response rating, Foxtail, Giant [10, 31]

Cc1cccc2c1O[C@@H](C)CN2C(=O)c1cccc(-n2cnc(C(C)C)n2)c1 [Compound 55]
20: Plant response rating, Ragweed [7, 35]
60: Plant response rating, Wheat [18, 34] | Plant response rating, Wheat [25, 36] | Plant response rating, Blackgrass [14, 33] | Plant response rating, Pigweed, Palmer [15, 34]
75: Plant response rating, Ducksalad [29]
0: Plant response rating, Horseweed [1, 33] | Plant response rating, Rice [21] | Plant response rating, Corn [27, 35]
90: Plant response rating, Goosegrass [19, 34] | Plant response rating, Oat, Wild [20, 36] | Plant response rating, Pigweed, Palmer [3, 36] | Plant response rating, Blackgrass [5, 36] | Plant response rating, Kochia [6, 35] | Plant response rating, Kochia [9, 34]
50: Plant response rating, Ryegrass, Italian [2, 33] | Plant response rating, Goosegrass [19, 33] | Plant response rating, Ragweed [12, 33]
40: Plant response rating, Wheat [18, 33] | Plant response rating, Oat, Wild [23, 33] | Plant response rating, Ragweed [7, 36] | Plant response rating, Wheat [25, 35] | Plant response rating, Corn [26, 33] | Plant response rating, Pigweed, Palmer [15, 33]
30: Plant response rating, Horseweed [1, 34] | Plant response rating, Barnyardgrass [24] | Plant response rating, Corn [27, 36] | Plant response rating, Soybean [28, 35]
80: Plant response rating, Pigweed, Palmer [3, 35] | Plant response rating, Oat, Wild [23, 34] | Plant response rating, Blackgrass [5, 35] | Plant response rating, Kochia [9, 33] | Plant response rating, Corn [26, 34] | Plant response rating, Blackgrass [14, 34] | Plant response rating, Ryegrass, Italian [16, 35]
70: Plant response rating, Oat, Wild [20, 35] | Plant response rating, Ragweed [12, 34]
100: Plant response rating, Goosegrass [17, 35] | Plant response rating, Goosegrass [17, 36] | Plant response rating, Ryegrass, Italian [2, 34] | Plant response rating, Kochia [6, 36] | Plant response rating, Foxtail, Giant [8, 35] | Plant response rating, Foxtail, Giant [8, 36] | Plant response rating, Foxtail, Giant [10, 33] | Plant response rating, Foxtail, Giant [10, 34] | Plant response rating, Galium [11, 33] | Plant response rating, Galium [11, 34] | Plant response rating, Soybean [28, 36] | Plant response rating, Soybean [30, 33] | Plant response rating, Soybean [30, 34] | Plant response rating, Ryegrass, Italian [16, 36]
95: Plant response rating, Sedge, Umbrella [22]
